Laboratory results published in publication PMC3291892 (Bioconjugate Chemistry, 2012).

How the values were obtained:
[1] = molecular target: T1, hA3AR (Homo sapiens, UniProt P0DMS8); format: cell-based; details: at 10 μM; relative to NECA 10 μM
T1 sequence (P0DMS8 1-318): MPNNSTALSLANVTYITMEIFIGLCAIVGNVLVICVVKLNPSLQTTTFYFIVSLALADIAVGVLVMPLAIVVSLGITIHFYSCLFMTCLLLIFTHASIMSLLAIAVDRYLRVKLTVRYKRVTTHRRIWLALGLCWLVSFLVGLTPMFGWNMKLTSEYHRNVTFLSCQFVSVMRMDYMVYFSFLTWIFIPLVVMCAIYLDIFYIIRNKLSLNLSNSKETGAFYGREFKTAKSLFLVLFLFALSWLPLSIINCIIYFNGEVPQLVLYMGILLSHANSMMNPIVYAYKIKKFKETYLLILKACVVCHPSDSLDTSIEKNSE

[2] = molecular target: T1, hA3AR; experiment: Radioligand binding at hA3AR; details: A3AR versus A1AR

| Molecule | A3AR efficacy in the functional assay (in words) [1] | selectivity for A3AR in comparison to the A1AR [2] |
| --- | --- | --- |
| (1S, 2R, 3S, 4R, 5S)-4-[2-Chloro-6-{3-(1,8-nonadiynyl)}-9H-purin -9-yl]- 2, 3-dihydroxybicyclo[3.1.0]hexane-1-carboxylic acid N-methylamide [Compound 11] | intermediate efficacy |  |
| C#CCNc1nc(Cl)nc2c1ncn2[C@H]1[C@H](O)[C@H](O)[C@]2(C(=O)NC)C[C@H]12 [Compound 31, (1S, 2R, 3S, 4R, 5S)-4-(2-Chloro-6-(prop-2-ynylamino)-9H-purin-9-yl)-2,3-dihydroxy-N-methylbicyclo[3.1.0]hexane-1-carboxamide] |  | 270 fold |
| CNC(=O)[C@@]12C[C@@H]1[C@@H](n1cnc3c(NCc4cccc(C#CCCCc5cn(-c6ccc(F)c(N)c6)nn5)c4)nc(Cl)nc31)[C@H](O)[C@@H]2O [Compound 16, (1S, 2R, 3S, 4R, 5S)-4-(2-Chloro-6-(3-(5-(1-(4-fluoro-3-amino-phenyl)-1H-1,2,3-triazol-4-yl)pent-1-ynyl)benzylamino)-9H-purin-9-yl)-2,3-dihydroxybicyclo[3.1.0]hexane-1-carboxylic acid-N-methylamide] | intermediate efficacy |  |
| (1S, 2R, 3S, 4R, 5S)-4-[2-Chloro-6-{3-(1,7-octadiynyl)}-9H-purin -9-yl]- 2, 3-dihydroxybicyclo[3.1.0]hexane-1-carboxylic acid N-methylamide [Compound 10] | intermediate efficacy |  |
| CNC(=O)[C@@]12C[C@@H]1[C@@H](n1cnc3c(NCc4cccc(C#CCCCCCc5cn(-c6ccc(F)c([N+](=O)[O-])c6)nn5)c4)nc(Cl)nc31)[C@H](O)[C@@H]2O [Compound 14, (1S, 2R, 3S, 4R, 5S)-4-(2-Chloro-6-(3-(7-(1-(4-fluoro-3-nitrophenyl)-1H-1,2,3-triazol-4-yl)hept-1-ynyl)benzylamino)-9H-purin-9-yl)-2,3-dihydroxybicyclo[3.1.0]hexane-1-carboxylic acid-N-methylamide] | intermediate efficacy |  |
